# Patent publication US4238620A, “Dibenz[b,f]oxepin and dibenzo[b,f]thiepin derivatives, process for preparation thereof, method of using the same, and compositions thereof” (priority 1978, dated 1980)
# Read-outs that look alike come from different tables or passages of the source.
# Tests used:
# [1] = system: Carrageenin-induced hind paw oedema in rats; experiment: Carrageenin-induced hind paw oedema in rats (CAR method), acute inflammation; format: in vivo; details: Rattus norvegicus, po, read-out: Anti-inflammatory activity ED50, acute inflammation, CAR
# Protocol: (§1) (1) Effect on acute inflammation:
# (a) Carrageenin-induced hind paw oedema in rats (CAR method)
# The test was carried out according to the method described in Proc. Soc. Exp. Biol. Med., 111, 544 (1962).
# [2] = system: Felt pellet-induced granuloma formation in rats; experiment: Felt pellet-induced granuloma formation in rats (FGF method), subacute and chronic inflammation; format: in vivo; details: Rattus norvegicus, po, read-out: Minimum Effective Dose, subacute and chronic inflammation, FGF*
# Protocol: (§2) (2) Effect on subacute and chronic inflammations:
# (b) Felt pellet-induced granuloma formation in rats (FGF method)
# The test was carried out according to the method described in J. Amer. Pharm. Assoc., 46, 515 (1957) and Chem. Pharm. Bull., 23, 1446 (1975).
# [3] = system: AgNO3-induced joint pain in rats; experiment: AgNO3-induced joint pain in rats (AGP method), analgesic activity; format: in vivo; details: Rattus norvegicus, po, read-out: Analgesic activity ED50, AGP
# Protocol: (§3) TEST 2. ANALGESIC ACTIVITY
# (a) AgNO3 -induced joint pain in rats (AGP method)
# The test was carried out according to the method described in J. Pharmacol. Expt. Ther., 98, 19 (1950)
# [4] = Gastrointestinal ulcer formation in fed rats (ulcerogenicity); format: in vivo; details: rat, in vivo, po, fed rats; read-out: UD50 (50% ulcer forming dose)
# Protocol: (§4) TEST 4. ULCEROGENICITY IN GASTROINTESTINAL TRACT
# (§5) Gastrointestinal ulcer formation in fed rats
# (§6) The test was carried out according to the method described in Science, 170, 183 (1970).
# [5] = system: Ultraviolet-induced erythema in guinea-pigs; experiment: Ultraviolet-induced erythema in guinea-pigs (UVE method), acute inflammation; format: in vivo; details: Cavia porcellus, po, read-out: Anti-inflammatory activity ED50, acute inflammation, UVE
# Protocol: as §1
# (b) Ultraviolet-induced erythema in guinea-pigs (UVE method)
# The test was carried out according to the method described in Arch. Int. Pharmacodyn. Ther., 116, 261 (1958).
# [6] = system: adjuvant-induced arthritis in rats; experiment: Therapeutic activity on adjuvant-induced arthritis in rats (AAT method), subacute and chronic inflammation; format: in vivo; details: Rattus norvegicus, po, read-out: Minimum Effective Dose, subacute and chronic inflammation, AAT*
# Protocol: as §2
# (a) Therapeutic activity on adjuvant-induced arthritis in rats (AAT method)
# The test was carried out according to the method described in Brit. J. Pharmacol., 21, 127 (1963) and Japan J. Pharmacol., 23, 58 (1973).
# [7] = system: Yeast-induced fever in rats; experiment: Yeast-induced fever in rats (YEF method), antipyretic activity; format: in vivo; details: Rattus norvegicus, po, read-out: Antipyretic activity ED50, YEF
# Protocol: TEST 3. ANTIPYRETIC ACTIVITY
# Yeast-induced fever in rats (YEF method)
# The test was carried out according to the method described in Arzneim. Forsch., 13, 338 (1963).
# in vivo [8] = details: rat, po
# [9] = format: in vivo; details: for therapeutic index compared with indomethacin: vs indomethacin
# Description: In the following description, the therapeutic index means LD50 /ED50 (or MED), and the safety index means UD50 /ED50 (or MED).
# [10] = Overall comparison of anti-inflammatory, analgesic and antipyretic activities (Tests 1 to 3); format: in vivo, rats; guinea-pigs; details: for anti-inflammatory, analgesic and antipyretic activities compared with indomethacin: vs indomethacin (compound 3)
# Description: (§7) From these diagrams, the correlation between the pharmacological activity of each compound and its ulcerogenicity and toxicity, i.e. the safety margin of each compound, can be clearly seen. In these Figures, the lines and letters have the following meanings:
# (§8) The following conclusions can be drawn from Tables I to III and FIGS. 1 and 2. In the following description, the therapeutic index means LD50 /ED50 (or MED), and the safety index means UD50 /ED50 (or MED). The safety margin of a given compound is broader when it has larger therapeutic and or safety indices.
# [11] = system: Gastrointestinal ulcer formation in fed rats; experiment: Gastrointestinal ulcer formation in fed rats (ulcerogenicity); format: in vivo; details: fraction of that of compound 2
# Protocol: as §4, §5, §6
# rats = experiment: Overall comparison of lethal toxicity (Test 5); format: in vivo; details: for toxicity compared with indomethacin (in words): vs indomethacin
# Protocol: (a) Single administration in rats
# (§9) (b) Repeated administrations in rats
# (§10) Test compounds were orally administered once daily for 5 days, and LD50 -value was calculated from the mortality on the 6th day.
# [12] = Safety index (UD50/ED50 or MED), separation of activity from ulcerogenicity; format: in vivo; details: for separation of anti-inflammatory, analgesic and antipyretic activities from ulcerogenicity: FIGS. 1 and 2, vs indomethacin
# Description: as §7, §8
# [13] = system: Acetic acid (AcOH)-induced writhing in rats; experiment: Acetic acid (AcOH)-induced writhing in rats (ACW method), analgesic activity; format: in vivo; details: Rattus norvegicus, po, read-out: Analgesic activity ED50, ACW
# Protocol: as §3
# (b) Acetic acid (AcOH)-induced writhing in rats (ACW method)
# The test was carried out according to the method described in Arzneim. Forsch., 25, 1505 (1975).
# in vivo [14] = details: rat, po; remark: listed apart in the source
# Protocol: as §9, §10
# [15] = rats, single administration, 7th day, read-out: LD50 Single
# [16] = rats, once daily for 5 days, mortality on 6th day, read-out: LD50 Repeated
SMILES,"ED50 ([1]; rats, CAR method)",minimal effective dose [2],ED50 [3],TD50 [4],ED50 [5],minimal effective dose [6],ED50 [7],ED50 [1],LD50 at 168 h (in vivo [8]; [15]),toxicity compared with indomethacin (in words) (rats),ED50 [13],LD50 at 144 h (in vivo [14]; [16]),further results
"Cc1ccc2c(c1)CC(=O)c1cc(CC(=O)OCCOCCO)ccc1O2 [compound F, 2-(2-Hydroxyethoxy)ethyl 8-methyl-10,11-dihydro-11-oxodibenz[b,f]oxepin-2-acetate]",7.95 mg/kg,–,–,–,–,–,–,–,–,–,–,–,–
"CC(C(=O)O)c1ccc2c(c1)C(=O)Cc1ccccc1O2 (stereo not drawn) [compound 1, 2-(10,11-dihydro-11-oxodibenz[b,f]oxepin-2-yl)propionic acid, reference compound]",–,3 mg/kg/day,5.8 mg/kg,4.85 mg/kg,0.93 mg/kg,1 mg/kg/day,0.062 mg/kg,3.65 mg/kg,106 mg/kg,–,–,–,–
"Cc1ccc2c(c1)CC(=O)c1cc(C(C)C(=O)OCCOCCO)ccc1S2 (racemic) [compound G, 2-(2-Hydroxyethoxy)ethyl dl-2-(8-methyl-10,11-dihydro-11-oxodibenzo[b,f]thiepin-2-yl)propionate]",–,–,0.96 mg/kg,2.94 mg/kg,2.52 mg/kg,≤ 0.2 mg/kg/day,0.041 mg/kg,5.94 mg/kg,–,far weaker than those of indomethacin,0.33 mg/kg,> 16 mg/kg,"average therapeutic index relative to compound 2 ([9]; LD50/ED50 (or MED), vs compound 2): more than 8 times; breadth of safety margin compared with compound 2 ([9]; safety margin, vs compound 2): far superior to compound 2; therapeutic index compared with indomethacin [9]: far larger therapeutic indices than indomethacin; analgesic activity compared with compounds 2 and C ([10]; AGP, ACW, vs compounds 2 and C): stronger than those of compounds 2 and C; antiinflammatory and antipyretic activities compared with compounds 2 and C ([10]; vs compounds 2 and C): weaker than those of compounds 2 and C; anti-inflammatory, analgesic and antipyretic activities compared with indomethacin [10]: equivalent or superior to those of indomethacin; ulcerogenicity relative to compound 2 [11]: about 1/5; toxicity relative to compound 2 (rats; fraction of that of compound 2): less than 1/7; separation of anti-inflammatory, analgesic and antipyretic activities from ulcerogenicity [12]: more separated from ulcerogenicity in the gastrointestinal tract than in indomethacin; average safety index relative to compound 2 ([12]; UD50/ED50 (or MED), vs compound 2): about 5 times"
"Cc1ccc2c(c1)CC(=O)c1cc(CC(=O)O)ccc1O2 [compound B, 8-Methyl-10,11-dihydro-11-oxodibenz[b,f]oxepin-2-acetic acid]",2.2 mg/kg,–,–,–,–,–,–,–,–,–,–,–,"minimal effective dose ([2]; rats, FGF method): 20 mg/kg/day; activity on acute inflammation and fever compared with indomethacin ([10]; acute inflammation and fever, vs indomethacin): nearly comparable to that of indomethacin; ED50 ([5]; guinea-pigs, UVE method): 4.48 mg/kg; ED50 ([7]; rats, YEF method): 0.357 mg/kg"
"CC(C(=O)OCCOCCO)c1ccc2c(c1)C(=O)Cc1ccccc1O2 (racemic) [compound D, 2-(2-Hydroxyethoxy)ethyl dl-2-(10,11-dihydro-11-oxodibenz[b,f]oxepin-2-yl)propionate]",2.87 mg/kg,–,–,–,–,–,–,–,–,far weaker than those of indomethacin,–,–,"minimal effective dose ([2]; rats, FGF method): 6 mg/kg/day; activity on subacute and chronic inflammation compared with indomethacin ([10]; AAT and FGF, vs indomethacin): inferior to that of indomethacin; anti-inflammatory (acute), analgesic and antipyretic activities compared with indomethacin ([10]; acute inflammation, analgesic, antipyretic, vs indomethacin): almost equivalent to those of indomethacin; pharmacological activities compared with compound 1 ([10]; vs compound 1): comparable to those of compound 1; ED50 ([3]; rats, AGP method): 4.6 mg/kg; ED50 ([5]; guinea-pigs, UVE method): 1.5 mg/kg; minimal effective dose ([6]; rats, AAT method): 1 mg/kg/day; ED50 ([13]; rats, ACW method): 1.06 mg/kg; ED50 ([7]; rats, YEF method): 0.112 mg/kg; LD50 at 144 h (in vivo [14]): > 24 mg/kg; LD50 at 168 h (in vivo [8]): 260 mg/kg"
"Cc1ccc2c(c1)CC(=O)c1cc(C(C)C(=O)O)ccc1O2 (racemic) [compound A, dl-2-(8-Methyl-10,11-dihydro-11-oxodibenz[b,f]oxepin-2-yl)propionic acid]",–,2 mg/kg/day,2.6 mg/kg,2.97 mg/kg,0.3 mg/kg,0.2 mg/kg/day,0.021 mg/kg,3.38 mg/kg,147 mg/kg,far weaker than those of indomethacin,0.28 mg/kg,> 12 mg/kg,"average therapeutic index relative to compound 1 ([9]; LD50/ED50 (or MED), vs compound 1): about 3.7 times; therapeutic index compared with indomethacin [9]: far larger therapeutic indices than indomethacin; pharmacological activities compared with compound 1 ([10]; vs compound 1): stronger pharmacological activities in all the methods tested; pharmacological potency and/or safety margin compared with compound 1 ([10]; vs compound 1): superior to compound 1 not only in pharmacological activities but also in safety margin; anti-inflammatory, analgesic and antipyretic activities compared with indomethacin [10]: equivalent or superior to those of indomethacin; toxicity relative to compound 1 (rats; vs compound 1): less toxic than compound 1; separation of anti-inflammatory, analgesic and antipyretic activities from ulcerogenicity [12]: more separated from ulcerogenicity in the gastrointestinal tract than in indomethacin; average safety index relative to compound 1 ([12]; UD50/ED50 (or MED), vs compound 1): about 1.6 times"
"COc1ccc2c(c1)c(CC(=O)O)c(C)n2C(=O)c1ccc(Cl)cc1 [compound 3, indomethacin, reference compound]",–,2 mg/kg/day,4.1 mg/kg,3.95 mg/kg,9.12 mg/kg,0.2 to 0.4 mg/kg/day,0.223 mg/kg,3.3 mg/kg,18.5 mg/kg,–,0.44 mg/kg,~5 mg/kg,–
"CC(C(=O)O)c1ccc2c(c1)C(=O)Cc1ccccc1S2 (stereo not drawn) [compound 2, 2-(10,11-dihydro-11-oxodibenzo[b,f]thiepin-2-yl)propionic acid, reference compound]",–,0.25 mg/kg/day,1.66 mg/kg,0.62 mg/kg,0.98 mg/kg,< 0.1 mg/kg/day,0.022 mg/kg,1.2 mg/kg,–,–,1.16 mg/kg,2.15 mg/kg,–
